Results reported in paper PMC12655529, “Serendipitous Hinge Modulation Hypothetically Reprograms Caerin 1.1-LC Antibacterial Mechanism and Gram-Negative Selectivity” (Pharmaceutics, 2025).
In brackets after ≈: the same amount, converted by molar mass. Read-outs that look alike come from different tables or passages of the source. Square brackets hold non-standard residues; d marks the D form. Ends that are not written are not given here. Peptide text beside a SMILES is read from it.

Assays:
[1] = test system: TNF-α secretion of LPS-stimulated RAW 264.7 cells; experiment: LPS neutralisation assay (TNF-α ELISA); type: cell-based, murine; details: RAW 264.7, 100 ng/mL LPS, 24 h, peptide and hydrocortisone at the same concentration (hydrocortisone 10 μg/mL), LPS alone approximately 100 ng/mL
Protocol: Murine macrophage RAW 264.7 cells were cultured in 6-well plates at a density of 5 × 10^5 cells per well and allowed to adhere for 24 h at 37 °C in a 5% CO2 humidified incubator. Cells were then stimulated with 100 ng/mL LPS in the presence or absence of test peptides at varying concentrations (typically 1–100 μM). Hydrocortisone (10 μg/mL) served as the positive control for anti-inflammatory activity. After 24 h of incubation, cell culture supernatants were collected and centrifuged at 300× g for 10 min to remove cellular debris. Tumour necrosis factor-alpha (TNF-α) secretion was quantified using a mouse TNF-α ELISA Development Kit (ThermoFisher Scientific, Waltham, MA, USA) according to the manufacturer’s protocol.

[2] = test system: Escherichia coli ATCC 8739; type: cell-based
E. coli ATCC BAA-2340 = type: cell-based, Escherichia coli
E. coli NCTC 13846 = type: cell-based, Escherichia coli
[3] = test system: Klebsiella pneumoniae ATCC 43816; type: cell-based
[4] = test system: K. pneumoniae ATCC BAA-2342; type: cell-based, Klebsiella pneumoniae
[5] = test system: Pseudomonas aeruginosa ATCC 9027; type: cell-based
Protocol: (§2) The antimicrobial activities of the peptides were evaluated by determining their minimal inhibitory concentration (MIC) and minimal bactericidal concentration (MBC) values following reported protocols [20]. The tested microorganisms included seven Gram-negative bacterial strains (Escherichia coli ATCC 8739, E. coli ATCC-BAA 2340, E. coli NCTC 13846, Klebsiella pneumoniae ATCC 43816, K. pneumoniae ATCC BAA-2342, Pseudomonas aeruginosa ATCC 9027, Acinetobacter baumannii ATCC BAA-747), three Gram-positive bacterial strains (Staphylococcus aureus ATCC 6538, Enterococcus faecalis NCTC 12697, MRSA NCTC 12493, and the fungal strain Candida albicans ATCC 10231. For the assay, each bacterial strain was cultured overnight at 37 °C in 100 mL of medium in a flask. The cultures were then subcultured to reach the logarithmic growth phase and diluted to 5 × 10^5 CFU/mL. Peptide samples were serially diluted two-fold in microplates, with concentrations ranging from 128 μM to 1 μM. The diluted bacterial suspensions were mixed with the peptide solutions and incubated overnight at 37 °C. The MIC values were determined by measuring the absorbance of each well using a Synergy HT plate reader (Agilent, Cheshire, UK). For MBC determination, aliquots from wells showing no visible growth were inoculated onto agar plates to assess bacterial viability. Each experiment was repeated independently three times and conducted in three independent replicates.

[6] = test system: Acinetobacter baumannii ATCC BAA-747; type: cell-based
[7] = test system: Staphylococcus aureus ATCC 6538; type: cell-based
Protocol: as §2

[8] = test system: Enterococcus faecalis NCTC 12697; type: cell-based
MRSA NCTC 12493 = type: cell-based, Staphylococcus aureus
Protocol: as §2

horse red blood cells = experiment: Haemolysis assay; type: cell-based; details: concentration inducing 10% haemolysis of horse erythrocytes; 4% (v/v) in PBS, 2 h, 37 °C, absorbance 570 nm; no haemolysis at maximum testing concentration (128 μM) recorded as 256 μM
Procedure, shortened: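 Horse erythrocytes, PBS-washed, at 4% (v/v) in PBS were exposed to peptide over a concentration range for 2 h at 37 °C. Supernatant absorbance at 570 nm was read after centrifugation. Haemolysis % was normalised between PBS blank (0%) and 0.1% Triton X-100 (100%).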

Gram-positive bacteria = experiment: Geometric mean MIC and therapeutic index, Gram-positive; type: cell-based; details: geometric mean of MICs
[9] = test system: HEK 293 human embryonic kidney cells; type: cell-based
Protocol: (§1) The peptide’s cytotoxicity against normal cell lines was detected by the MTT assay. Following resuscitation from cryopreservation (−80 °C), the cell line underwent multiple passages to ensure viability and adaptation. Cells were then seeded into 96-well plates and maintained at 37 °C in a 5% CO2 humidified atmosphere for 24 h to achieve proper adherence. After incubation, cells were serum-starved for 4 h using foetal bovine serum (FBS)-free medium (ThermoFisher, Waltham, MA, USA) to synchronise cell cycle progression. Peptide solutions were prepared at concentrations ranging from 128 μM to 1 μM (serial two-fold dilutions) and applied to the cells. Following peptide treatment, 10 μL of MTT (3-(4,5-dimethylthiazol-2-yl)-2,5-diphenyltetrazolium bromide) solution (5 mg/mL in PBS) was added to each well and incubated for 2 h at 37 °C. The medium was then carefully aspirated, and 100 μL of DMSO was added to dissolve the formazan crystals. Absorbance was measured at 570 nm using a microplate reader (Agilent, Cheshire, UK), with a reference wavelength of 630 nm to account for background interference. Experiments were conducted in triplicate and repeated three independent times.

[10] = test system: HMEC-1 human microvascular endothelial cells; type: cell-based; details: 24 h
Protocol: as §1

[11] = test system: HaCaT human keratinocytes; type: cell-based; details: 24 h
Protocol: as §1

[12] = test system: MRC-5 human embryonic lung fibroblasts; type: cell-based; details: 24 h
Protocol: as §1

[13] = test system: RAW 264.7 murine macrophages; type: cell-based; details: 24 h
Protocol: as §1

E. coli (ATCC-BAA 2340) = type: cell-based, Escherichia coli
Protocol: The peptide sensitivity was determined in different salt- and serum-containing environments. Bacterial strains were prepared following the MIC detection protocol described previously. To evaluate peptide sensitivity under physiological conditions, various concentrations of salt ions (150 mM NaCl, 4.5 mM KCl, 2 mM CaCl2, 1 mM MgCl2, 8 µM ZnCl2, 6 µM NH4Cl, or 4 µM FeCl3) and serum (10% FBS) were prepared in McCartney bottles prior to the addition of bacterial suspensions. The subcultured bacterial suspensions were then introduced to these modified media conditions. For MIC determination, the treated bacterial suspensions were diluted and dispensed into 96-well plates containing peptide solutions at graded concentrations. This assay allowed for the detection of potential alterations in MIC values, serving as an indicator of peptide sensitivity under different physiological conditions. All experiments were independently repeated three times, each with three replicates.

[14] = test system: Galleria mellonella larvae; experiment: In vivo toxicity in larvae; details: uninfected G. mellonella larvae, injection at 1×, 2×, 4× MIC, n = 10 per group, observed five days
Gram-negative bacteria = experiment: Geometric mean MIC and therapeutic index, Gram-negative; type: cell-based; details: geometric mean of MICs
[15] = first value of MIC/MBC cell, 5 × 10^5 CFU/mL, overnight 37 °C, absorbance
[16] = second value of MIC/MBC cell, agar plating

Row | Molecule | MBC, E. coli (ATCC 8739) ([2]; ATCC 8739) [µM] | MBC, E. coli (ATCC BAA-2340) (E. coli ATCC BAA-2340) [µM] | MIC, E. coli (ATCC BAA-2340) (E. coli ATCC BAA-2340) [µM] | MBC, E. coli (NCTC 13846) (E. coli NCTC 13846) [µM] | MIC, E. coli (NCTC 13846) (E. coli NCTC 13846) [µM] | MBC, K. pneumoniae (ATCC BAA-2342) [4] [µM] | MIC, K. pneumoniae (ATCC BAA-2342) [4] [µM] | MBC, P. aeruginosa (ATCC 9027) [5] | MIC, P. aeruginosa (ATCC 9027) [5] | MBC, MRSA (NCTC 12493) (MRSA NCTC 12493) [µM] | MIC, MRSA (NCTC 12493) (MRSA NCTC 12493) [µM] | HC10 (horse red blood cells) [µM] | GM MIC Gram-Positive (Gram-positive bacteria) [µM] | MIC, FBS (E. coli (ATCC-BAA 2340); ATCC-BAA 2340) [µM] | MIC, Fe^3+ (E. coli (ATCC-BAA 2340); ATCC-BAA 2340) [µM] | MIC, K^+ (E. coli (ATCC-BAA 2340); ATCC-BAA 2340) [µM] | MIC, Mg^2+ (E. coli (ATCC-BAA 2340); ATCC-BAA 2340) [µM] | MIC, NH4^+ (E. coli (ATCC-BAA 2340); ATCC-BAA 2340) [µM] | MIC, Na^+ (E. coli (ATCC-BAA 2340); ATCC-BAA 2340) [µM] | further results
1 | C[C@]12CCC(=O)C=C1CC[C@@H]1[C@@H]2[C@@H](O)C[C@@]2(C)[C@H]1CC[C@]2(O)C(=O)CO [hydrocortisone] |  |  |  |  |  |  |  |  |  |  |  |  |  |  |  |  |  |  |  | TNF-α level after LPS stimulation [1]: approximately 22.3 ng/mL
2 | GLLSVLGSLKLIVPHVVPLIAEKL-NH2 [Caerin 1.1-LC] | 64 | 16 | 8 | 32 | 4 | 64 | 16 | 128 µM | 64 µM | 128 | 32 | 37.5 | 14.25 | 32 | 16 | 16 | 32 | 16 | 16 | MIC, E. coli (ATCC 8739) ([2]; ATCC 8739): 16 µM; MBC, K. pneumoniae (ATCC 43816) ([3]; ATCC 43816): 64 µM; MIC, K. pneumoniae (ATCC 43816) ([3]; ATCC 43816): 16 µM; MBC, A. baumannii (ATCC BAA-747) ([6]; ATCC BAA-747): 128 µM; MIC, A. baumannii (ATCC BAA-747) ([6]; ATCC BAA-747): 16 µM; MBC, S. aureus (ATCC 6538) ([7]; ATCC 6538): 128 µM; MIC, S. aureus (ATCC 6538) ([7]; ATCC 6538): 64 µM; MBC, E. faecalis (NCTC 12697) ([8]; NCTC 12697): >128 µM; MIC, E. faecalis (NCTC 12697) ([8]; NCTC 12697): >128 µM; IC50 ([9]; 24 h): 10.8 µM; IC50 [10]: 79.3 µM; IC50 [11]: 61.2 µM; IC50 [12]: 14.8 µM; IC50 [13]: 6 µM; MIC, Ca^2+ (E. coli (ATCC-BAA 2340); ATCC-BAA 2340): 64 µM; toxicity to larvae (mortality) [14]: complete mortality by day four or five post-injection
3 | CC[C@H](C)[C@H](NC(=O)[C@H](CCCCN)NC(=O)[C@@H]1CCCN1C(=O)[C@H](NC(=O)[C@H](NC(=O)[C@H](Cc1c[nH]cn1)NC(=O)[C@@H]1CCCN1C(=O)[C@@H](NC(=O)[C@@H](NC(=O)[C@H](CCCCN)NC(=O)[C@H](CCCCN)NC(=O)[C@H](CC(C)C)NC(=O)[C@H](CO)NC(=O)[C@H](CCCCN)NC(=O)[C@H](CC(C)C)NC(=O)[C@@H](NC(=O)[C@H](CO)NC(=O)[C@H](CC(C)C)NC(=O)[C@H](CC(C)C)NC(=O)CN)C(C)C)[C@@H](C)CC)C(C)C)C(C)C)C(C)C)C(=O)N[C@@H](C)C(=O)N[C@@H](CCC(=O)O)C(=O)N[C@@H](CCCCN)C(=O)N[C@@H](CC(C)C)C(N)=O [Caerin 1.1-LC 7.11.19K.V(D)V(D)] (H-GLLSVLKSLKKIVPH[dV][dV]PKIAEKL-NH2) | 4 (≈ 10.4 µg/mL) | 4 (≈ 10.4 µg/mL) | 4 (≈ 10.4 µg/mL) | 8 (≈ 20.9 µg/mL) | 8 (≈ 20.9 µg/mL) | 32 (≈ 83.5 µg/mL) | 16 (≈ 41.7 µg/mL) | 4/4 µM | 4/4 µM | 64 (≈ 167 µg/mL) | 64 (≈ 167 µg/mL) | 256 | 128 | 16 (≈ 41.7 µg/mL) | 4 (≈ 10.4 µg/mL) | 4 (≈ 10.4 µg/mL) | 32 (≈ 83.5 µg/mL) | 4 (≈ 10.4 µg/mL) | 16 (≈ 41.7 µg/mL) | MIC, E. coli (ATCC 8739) ([2]; first value of MIC/MBC cell, 5 × 10^5 CFU/mL, peptide 128 to 1 μM two-fold, overnight 37 °C, absorbance, repeated three times): 2 µM (≈ 5.22 µg/mL); MIC, K. pneumoniae (ATCC 43816) [3, 15]: 64 µM (≈ 167 µg/mL); MBC, K. pneumoniae (ATCC 43816) [3, 16]: 128 µM (≈ 334 µg/mL); MIC, A. baumannii (ATCC BAA-747) [6, 15]: 32 µM (≈ 83.5 µg/mL); MBC, A. baumannii (ATCC BAA-747) [6, 16]: 128 µM (≈ 334 µg/mL); MIC, S. aureus (ATCC 6538) [7, 15]: 128 µM (≈ 334 µg/mL); MBC, S. aureus (ATCC 6538) [7, 16]: 128 µM (≈ 334 µg/mL); MIC, E. faecalis (NCTC 12697) [8, 15]: >128 µM; MBC, E. faecalis (NCTC 12697) [8, 16]: >128 µM; GM MIC Gram-Negative (Gram-negative bacteria): 9.75 µM; IC50 ([9]; MTT, peptide 128 to 1 μM, absorbance 570 nm, triplicate, three independent repeats, NI = no inhibition activity, read-out: IC50, HEK 293): 130 µM; MIC, Control (E. coli (ATCC-BAA 2340); ATCC-BAA 2340): 4 µM (≈ 10.4 µg/mL); MIC, Ca^2+ (E. coli (ATCC-BAA 2340); E. coli (ATCC-BAA 2340), medium with 2 mM CaCl2): 128 µM (≈ 334 µg/mL)
